These results are taken from patent US20050085554A1, “Methods of treating disease through the administration of a manzamine analog or derivative” (priority 2003, published 2005).

≈ marks a conversion by molar mass, not a printed value.

For data set [1], the system named is Plasmodium falciparum (D6 clone). The experiment in a line: Antimalarial activity in vitro, D6 clone. Format: cell-based.
The test system of another data set is HIV-1LAV. Put plainly: Anti-HIV-1 activity in PBM cells. In kind it is cell-based, human immunodeficiency virus (HIV-1). Conditions: for EC50: T5. The procedure:
Anti-HIV-1 activity was determined in PBM cells as described previously. See, Stock solutions (20 or 40 mM) of the compounds were prepared in sterile DMSO and then diluted to the desired concentration in growth medium. Cells were infected with the prototype HIV-1LAV at a multiplicity of infection of 0.1. Details on the infection of cells and assessment of antiviral effects was described previously. See, Schinazi, R. F.; McMillan, A.; Cannon, D.; Mathis, R.; Lloyd, R. M.; Peck, A.; Sommadossi, J.-P.; Clair, M. S.; Wilson, J.; Furman, P. A.; Painter G.; Choi, W.-B.; Liotta, D. C. Antimicrob. Agents Chemother. 1992, 36, 2423-2431 and Schinazi, R. F.; Sommadossi, J.-P.; Saalmann, V.; Cannon, D. L.; Xie, M.-Y.; Hart, G. C.; Smith, G. A.; Hahn, E. F. Antimicrob. Agents Chemother. 1990, 34, 1061-1067.

The test system of another data set is Cryptococcus neoformans. Put plainly: Antifungal activity against Cryptococcus neoformans. Format: cell-based. Conditions: for Antifungal IC50 C. neoformans: T5, NA = not active.
Data set [2] concerns Mycobacterium intracellulare. The experiment in a line: Activity against M. intracellulare. Format: cell-based. Conditions: for IC50 M. intracellulare: T5, NA = not active.
The test system of data set [3] is P. falciparum (chlorine-resistant W2 clone). Put plainly: Antimalarial activity in vitro, W2 clone. Format: cell-based, Plasmodium falciparum.
Data set [4] has as its system methicillin-resistant Staphylococcus aureus. The experiment in a line: Antibacterial activity against MRS. Format: cell-based. To be noted: for Antibacterial IC50 MRS: T5, NA = not active.
The subject of another data set is Leishmania donovani. The experiment in a line: Antileishmanial activity in vitro. Format: cell-based.
For data set [5], the system named is Mycobacterium tuberculosis H37Rv. The experiment in a line: In vitro antimycobacterial activity (Microplate Alamar Blue Assay), MIC. In kind it is cell-based. To be noted: for Mycobacterium Tuberculosis (H37Rv) MIC: T4; for MIC against Mycobacterium tuberculosis (Mtb): rifampin = positive control. For orientation: The colour change of resazurin is a common sign of viable cells or microbes.

Another data set deals with Staphylococcus aureus. Put plainly: Antibacterial activity against S. aureus. Format: cell-based. To be noted: for Antibacterial IC50 S. aureus: T5, NA = not active.
A further data set relates to Aspergillus fumigatus. The experiment in a line: Antifungal activity against Aspergillus fumigatus. Format: cell-based. Conditions: T6, footnote a: the lowest concentration that significantly inhibits growth.
The test system of another data set is Candida albicans. The experiment in a line: Antifungal activity against Candida albicans. Format: cell-based.
Data set [6] deals with human lung carcinoma A-549.
For data set [7], the system named is human colon carcinoma H-116.
Another data set deals with Vero cells. Put plainly: In vitro cytotoxicity to mammalian cells (Vero).
The mark [8] stands for this setting: T4, NC = No Cytotoxicity (concentration: 4760 ng/ml).

Take `Oc1cccc2c1[nH]c1c(C3=C[C@@]4(O)CC/C=C\CCCCN5CCC3[C@]3(CC6/C=C\CCCCN6[C@H]34)C5)nccc12` (single isomer, unassigned; (+)) [(+)-8-Hydroxymanzamine A]: the “Plasmodium falciparum (D6 clone) IC 50” value in [1] (T4, NA = not active) worked out at 0.006 µg/mL. Besides, the concentration giving a half-maximal response (EC50) (commonly the concentration giving half of the maximal effect) in the data set on HIV-1LAV turned out to be 0.59 µM. Further, in the data set with Cryptococcus neoformans, the “Antifungal IC50 C. neoformans” value was found to be 3.0 µg/mL. Moreover, the “IC50 M. intracellulare” value in data set [2] was determined as 1.0 µg/mL (≈ 1.77 µM). The “P. falciparum (chlorine-resistant W2 clone) IC 50” value (“P. falciparum” for short) in [3] (T4, NA = not active) stood at 0.008 µg/mL. In addition, in data set [4], the “Antibacterial IC50 MRS” value amounted to 4.0 µg/mL. For the same compound, in the data set on Leishmania donovani (T4), the “Leishmania donovani IC 50” value was determined as 6.2 µg/mL and the “Leishmania donovani IC 90” value worked out at 11 µg/mL. Also, in data set [5], the “Mycobacterium Tuberculosis (H37Rv) MIC” value is 0.91 µg/mL. Besides, in the data set on Staphylococcus aureus, the “Antibacterial IC50 S. aureus” value amounted to 0.9 µg/mL.
In the case of `C1=C/[C@@H]2[C@H]3CCCC[C@@H]3C[C@@H]2NCCCNC2C[C@H]3CCCC[C@@H]3[C@H]2/C=C/1` (single isomer, unassigned; (-)) [Papuamine, (−)-papuamine], the concentration for half-maximal inhibition (IC50) (as a rule, the concentration needed to halve the response being measured) is 0.15 µg/mL (≈ 0.407 µM) in [1] (Plasmodium falciparum, D6, T6); 0.35 µg/mL (≈ 0.95 µM) with Cryptococcus neoformans (Cryptococcus neoformans, read-out: Cryptococcus neoformans IC50); 4 µg/mL (≈ 10.9 µM) in data set [2] (Mycobacterium intracellulare, T6, read-out: Mycobacterium intracellulare IC50); 0.34 µg/mL (≈ 0.922 µM) in data set [3] (Plasmodium falciparum, W2, T6, read-out: P. falciparum (W2 clone) IC50); 2.5 µg/mL (≈ 6.78 µM) in data set [4] (T6, MRS: methicillin-resistant Staphylococcus aureus, read-out: MRS IC50); 1.5 µg/mL (≈ 4.07 µM) in the data set on Candida albicans (Candida albicans, T6). Further, the IC50 in the data set with Staphylococcus aureus (Staphylococcus aureus, T6, read-out: Staphylococcus aureus IC50) is 2.5 µg/mL (≈ 6.78 µM). Further, the MIC (in general, the lowest concentration that inhibits growth of the organism) with Cryptococcus neoformans (Cryptococcus neoformans, lowest concentration that allows no detectable growth) stood at 0.63 µg/mL (≈ 1.71 µM); in data set [4] (Staphylococcus aureus, T6), 5 µg/mL (≈ 13.6 µM); with Aspergillus fumigatus (Aspergillus fumigatus), 1.25 µg/mL (≈ 3.39 µM); in [5] (Mycobacterium tuberculosis, H37RV, T6, read-out: Mycobacterium tuberculosis MIC), 0.4 µg/mL (≈ 1.09 µM); against Candida albicans (Candida albicans, T6, MIC: lowest concentration that allows no detectable growth), 5 µg/mL (≈ 13.6 µM); with Staphylococcus aureus (Staphylococcus aureus, T6), 5 µg/mL (≈ 13.6 µM).
For `O[C@]12C=C(c3nccc4c3[nH]c3ccccc34)C3CCN(CCCC/C=C\CC1)C[C@@]31C[C@]34CC[C@H](CCCN3[C@H]12)O4` (stereo partly shown) [6-Deoxymanzamine X], the “Plasmodium falciparum (D6 clone) IC 50” value in data set [1] (T4, NA = not active) amounted to 1.3 µg/mL. Besides, the EC50 in the data set with HIV-1LAV was found to be 1.6 µM. In addition, the “Antifungal IC50 C. neoformans” value in the data set with Cryptococcus neoformans came to 2.0 µg/mL. In [2], the “IC50 M. intracellulare” value turned out to be 6.25 µg/mL (≈ 11.1 µM). The “P. falciparum” value in [3] (T4, NA = not active) was 1.4 µg/mL. The “Antibacterial IC50 MRS” value in data set [4] came out at 1.5 µg/mL. Further, in the data set on Leishmania donovani (T4), the “Leishmania donovani IC 50” value turned out to be 3.2 µg/mL and the “Leishmania donovani IC 90” value is 7.5 µg/mL. In addition, the “Mycobacterium Tuberculosis (H37Rv) MIC” value in [5] came to 1.77 µg/mL. Further, the “Antibacterial IC50 S. aureus” value in the data set with Staphylococcus aureus was found to be 1.5 µg/mL.
Consider `C[C@@H]1[C@H](O)[C@@H](C)/C=C/C=C/C=C/C=C/C=C/C=C/C=C/[C@H](O[C@@H]2O[C@H](C)[C@@H](O)[C@H](N)[C@@H]2O)C[C@@H]2O[C@](O)(C[C@@H](O)C[C@@H](O)[C@H](O)CC[C@@H](O)C[C@@H](O)CC(=O)O[C@H]1C)C[C@H](O)[C@H]2C(=O)O` [Amphotericin B, reference compound], for which, in the data set on Cryptococcus neoformans, the “Cryptococcus neoformans IC50” value is 0.25 µg/mL and the “Antifungal IC50 C. neoformans” value amounted to 0.15 µg/mL. In the data set on Cryptococcus neoformans (lowest concentration that allows no detectable growth), the “Cryptococcus neoformans MIC” value worked out at 0.63 µg/mL. In the data set with Leishmania donovani (T4), the “Leishmania donovani IC 50” value came out at 0.06 µg/mL and the “Leishmania donovani IC 90” value turned out to be 0.15 µg/mL. In the data set with Aspergillus fumigatus, the “Aspergillus fumigatus MIC” value is recorded as 0.63^a μg/mL. The “Candida albicans IC50” value in the data set with Candida albicans (T6) came to 0.10 µg/mL. In addition, the “Candida albicans MIC” value with Candida albicans (T6, MIC: lowest concentration that allows no detectable growth) stood at 0.63 µg/mL.
For `CC(=O)C[C@H]1C[C@H]2[C@H]([C@@H]3c4[nH]c5ccccc5c4CCN13)[C@H](O)C13CC/C=C\CCCCN1CC21C2CCCCCCCN2[C@H]13` (stereo partly shown) [Manadomanzamine A], the “EC50 against human immunodeficiency virus (HIV-1)” value (“EC50 … (HIV-1)” for short) with HIV-1LAV turned out to be 6.96 µg/mL (≈ 11.4 µM). Also, the “IC50 against human lung carcinoma A-549” value in [6] stood at 2.5 µg/mL (≈ 4.09 µM). Further, the “IC50 against human colon carcinoma H-116” value in data set [7] was 5.0 µg/mL (≈ 8.18 µM). Also, the “MIC against Mycobacterium tuberculosis (Mtb)” value in [5] came out at 1.86 µg/mL (≈ 3.04 µM). In the data set with Candida albicans, the “IC50 against the fungus Candida albicans” value amounted to 20 µg/mL (≈ 32.7 µM).
For the compound `CC(=O)C[C@@H]1C[C@H]2[C@H]([C@@H]3c4[nH]c5ccccc5c4CCN13)[C@H](O)C13CC/C=C\CCCCN1CC21C2CCCCCCCN2[C@H]13` (stereo partly shown) [Manadomanzamine B], the “EC50 … (HIV-1)” value in the data set with HIV-1LAV amounted to 16.5 µg/mL (≈ 27 µM). Moreover, the “IC50 against the fungus Cryptococcus neoformans” value in the data set on Cryptococcus neoformans was 3.5 µg/mL (≈ 5.73 µM). Moreover, the “IC50 against human colon carcinoma H-116” value in data set [7] came to 5.0 µg/mL (≈ 8.18 µM). Moreover, the “MIC against Mycobacterium tuberculosis (Mtb)” value in [5] was found to be 1.53 µg/mL (≈ 2.5 µM).
For the compound `O[C@]12C=C(c3nccc4c3[nH]c3ccccc34)[C@@H]3CCN(CCCC/C=C\CC1)C[C@@]31C[C@@H]3/C=C\CCCCN3[C@H]12` [Manzamine A], the “Plasmodium falciparum (D6 clone) IC 50” value in [1] (T4, NA = not active) turned out to be 0.0045 µg/mL; in data set [1] (T7), 0.0045 µg/mL. In the data set with HIV-1LAV, this compound came in with an EC50 of 4.2 µM. Moreover, the “Antifungal IC50 C. neoformans” value in the data set on Cryptococcus neoformans came out at 3.0 µg/mL. In addition, the “Cytotoxicity (Vero)” value in the data set on Vero cells (setting [8]) came out at 1200 ng/mL; in the data set with Vero cells (T7, NC not defined in this table), 1200 ng/mL. Further, the “IC50 M. intracellulare” value in [2] came out at 0.35 µg/mL (≈ 0.638 µM). Further, in data set [2] (T7, first value of a cell '2.0/5.0'), the “M. intracellulare IC50” value was determined as 1.53 µg/mL. Moreover, the “P. falciparum” value in data set [3] (T4, NA = not active) amounted to 0.008 µg/mL; in data set [3] (T7), 0.008 µg/mL. Also, the “Antibacterial IC50 MRS” value in data set [4] was 0.7 µg/mL. For the same compound, the “Leishmania donovani IC 50” value with Leishmania donovani (T4) and in the data set on Leishmania donovani (T7) was 0.9 µg/mL each time. The “Leishmania donovani IC 90” value in the data set with Leishmania donovani (T4) and in the data set on Leishmania donovani (T7) was 1.8 µg/mL in each case. Also, in [5], the “Mycobacterium Tuberculosis (H37Rv) MIC” value is 1.53 µg/mL. In addition, in the data set with Staphylococcus aureus, the “Antibacterial IC50 S. aureus” value was 0.5 µg/mL.
Regarding Manzamine A N-oxide, the “Plasmodium falciparum (D6 clone) IC 50” value in data set [1] (T4, NA = not active) worked out at 0.011 µg/mL. Moreover, in the data set with Cryptococcus neoformans, the “Antifungal IC50 C. neoformans” value was found to be 1.0 µg/mL. Moreover, in the data set with Vero cells (setting [8]), the “Cytotoxicity (Vero)” value stood at 420 ng/mL. For the same compound, in [2], the “IC50 M. intracellulare” value worked out at 0.2 µg/mL. Besides, in data set [3] (T4, NA = not active), the “P. falciparum” value is 0.013 µg/mL. In data set [4], the “Antibacterial IC50 MRS” value was found to be 0.35 µg/mL. For the same compound, in the data set with Leishmania donovani (T4), the “Leishmania donovani IC 50” value amounted to 1.1 µg/mL and the “Leishmania donovani IC 90” value was 3.8 µg/mL. For the same compound, the “Mycobacterium Tuberculosis (H37Rv) MIC” value in data set [5] was determined as 3.9 µg/mL. Moreover, the “Antibacterial IC50 S. aureus” value with Staphylococcus aureus is 0.5 µg/mL.
xestomanzamine A: the “EC50 … (HIV-1)” value with HIV-1LAV was 11.2 µg/mL. In addition, the “IC50 against the fungus Cryptococcus neoformans” value in the data set with Cryptococcus neoformans was 6.0 µg/mL. In addition, the “Cytotoxicity IC50 A-594” value in data set [6] was greater than 5 µg/mL. Besides, the “Cytotoxicity IC50 H-116” value in [7] is greater than 5 µg/mL. In [5] (T1, no unit in table), the “Anti-TB MIC” value turned out to be 14.1 µg/mL.
